Source: article PMC9535653 (ACS Omega, 2022)

How the values were obtained:
Truncated C-domain ACE = assay: fluorimetric ACE activity assay, truncated C-domain; assay type: biochemical; conditions: at micromolar concentrations under identical assay conditions
N-domain (ACE) = conditions: read-out: Ki, N-domain, ref [20],[21]; cited from earlier work
C-domain of ACE = conditions: ref [20],[21], cited from earlier work

Sequence of Truncated C-domain ACE (P12821 643-1222 limits assumed): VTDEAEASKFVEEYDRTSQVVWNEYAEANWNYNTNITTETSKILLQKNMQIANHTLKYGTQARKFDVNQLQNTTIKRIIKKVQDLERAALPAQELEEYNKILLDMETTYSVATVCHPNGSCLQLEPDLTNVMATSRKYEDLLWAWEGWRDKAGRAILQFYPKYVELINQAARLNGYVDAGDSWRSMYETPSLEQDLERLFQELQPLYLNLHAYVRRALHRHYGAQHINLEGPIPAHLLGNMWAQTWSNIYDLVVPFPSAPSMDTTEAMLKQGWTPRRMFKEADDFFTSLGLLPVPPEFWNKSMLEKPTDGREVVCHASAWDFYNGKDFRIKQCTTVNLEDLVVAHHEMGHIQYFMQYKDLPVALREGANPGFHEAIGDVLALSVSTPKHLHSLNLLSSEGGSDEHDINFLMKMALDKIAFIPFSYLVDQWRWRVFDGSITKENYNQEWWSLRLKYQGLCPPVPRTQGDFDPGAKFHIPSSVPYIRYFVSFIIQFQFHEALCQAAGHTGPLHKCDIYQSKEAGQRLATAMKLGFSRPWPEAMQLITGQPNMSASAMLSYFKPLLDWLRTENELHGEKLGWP

(2-(((R)-1-(((Benzyloxy)carbonyl)amino)-2-phenylethyl)(hydroxy)phosphoryl)cyclopentane-1-carbonyl)-L-tryptophan [RXPA380]
Inhibition of C-domain by parent (in words) (Truncated C-domain ACE): completely inhibits the C-domain at micromolar concentrations
Ki (N-domain (ACE)): 10 µM
potency and selectivity for C-domain of ACE (in words) (C-domain of ACE; C-domain versus N-domain): the most potent and selective C domain of ACE
Ki (C-domain of ACE; read-out: Ki, C-domain, ACE C-domain): 0.003 µM
